Results as given in the NIST ThermoML archive (doi:10.1021/je100362p).
Numbers after ± are expanded uncertainties.

Assay: xn = mol fraction of the nth substance listed
Conditions: 101 kPa, Liquid; for speed of sound: Sing-around technique in a fixed-path interferometer

COc1ccccc1 [anisole] + CCCCCCCCCCO
Conditions | mass density, 298.15 K [kg/m3] | mass density, 303.15 K [kg/m3] | speed of sound, 298.15 K [m/s] | speed of sound, 303.15 K [m/s] | speed of sound, 308.15 K [m/s]
x1 = 0.0817 | 833.984 ± 0.54 | 830.48 ± 0.55 | 1377.1 ± 1.1 | 1359.8 ± 1.1 | 1342.7 ± 1.1
x1 = 0.144 | 840.044 ± 0.53 | 836.478 ± 0.54 | 1375.3 ± 1.1 | 1357.9 ± 1.1 | 1340.7 ± 1.1
x1 = 0.2047 | 846.31 ± 0.52 | 842.682 ± 0.52 | 1373.6 ± 1.1 | 1356.1 ± 1.1 | 1338.8 ± 1.1
x1 = 0.273 | 853.826 ± 0.5 | 850.126 ± 0.51 | 1371.9 ± 1.1 | 1354.2 ± 1.1 | 1336.8 ± 1.1
x1 = 0.3484 | 862.774 ± 0.49 | 858.992 ± 0.49 | 1370.2 ± 1.1 | 1352.4 ± 1.1 | 1334.8 ± 1.1
x1 = 0.4099 | 870.64 ± 0.47 | 866.789 ± 0.48 | 1369.4 ± 1.1 | 1351.4 ± 1.1 | 1333.6 ± 1.1
x1 = 0.4874 | 881.37 ± 0.45 | 877.429 ± 0.46 | 1368.8 ± 1.1 | 1350.8 ± 1.1 | 1332.8 ± 1.1
x1 = 0.544 | 889.862 ± 0.43 | 885.853 ± 0.44 | 1369.2 ± 1.1 | 1350.9 ± 1.1 | –
x1 = 0.6071 | 900.075 ± 0.42 | 895.987 ± 0.42 | 1370.4 ± 1.1 | 1351.9 ± 1.1 | –
x1 = 0.6699 | 911.097 ± 0.4 | 906.926 ± 0.4 | 1372.3 ± 1.1 | 1353.6 ± 1.1 | –
x1 = 0.7359 | 923.763 ± 0.37 | 919.5 ± 0.38 | 1375.5 ± 1.1 | 1356.5 ± 1.1 | –
x1 = 0.8171 | 941.067 ± 0.34 | 936.682 ± 0.35 | 1381.6 ± 1.1 | 1362.2 ± 1.1 | –
x1 = 0.91 | 963.68 ± 0.3 | 959.139 ± 0.31 | 1392.6 ± 1.1 | 1372.8 ± 1.1 | –
x1 = 0.9464 | 973.453 ± 0.28 | 968.846 ± 0.29 | 1398 ± 1.1 | 1377.9 ± 1.1 | –
x1 = 1 | 989.145 ± 0.25 | 984.433 ± 0.26 | 1406.9 ± 1.1 | 1386.8 ± 1.1 | –
